The nature of series [1]: Cytotoxicity assay (MTS/PMS). Conditions: bovine. The protocol:
(§1) (A) Cytotoxicity. Sub-confluent MDBK cell monolayers grown in 96-well plates were treated with 2-fold serial dilutions of each compound in IM. Mock-treated cells were added as control. Cells were incubated and allowed to proliferate for 3 days at 37°C and 5% CO2. Cell viability was then determined by the MTS/PMS method. (B) Antiviral activity. Sub-confluent MDBK cell monolayers grown in 96-well plates were infected with BVDV NADL (MOI = 0.01) and treated with different concentrations of the compounds. Mock-infected cells and mock-treated infected cells were included as controls in each plate. After 3 days at 37°C and 5% CO2, cell viability was determined by the MTS/PMS method, and the percentage of the viral CPE inhibition was calculated.
(§2) MDBK cells were seeded in 96-well plates at a density of 1 × 10^4 cells per well in GM. After 24 h, the culture medium was removed, monolayers were washed twice with phosphate-buffered saline (PBS), and serial dilutions of the test compounds were made in E-MEM supplemented with donor horse serum (DHS, Gibco, IM) and added. Cultures were incubated for 3 days at 37°C, and then, cell viability was determined by the MTS/PMS method according to the manufacturer's instructions (Promega). After incubation for 3 h at 37°C and 5% CO2, the absorbance was determined at 490 nm. The 50% cytotoxic concentration (CC50) was defined as the concentration of compound that inhibited the proliferation of exponentially growing cells by 50% and was calculated by interpolation in dose–response curves.

The next series deals with MDBK cells. The experiment in a line: Cytotoxicity assay (MTS/PMS). Particulars: MDBK cells, 3 days. The method, then: as §1, §2
For another series, the system named is BVDV type 1 NADL strain. Nature of the series: Anti-BVDV assay (CPE reduction, MTS/PMS). The format is cell-based, Bovine viral diarrhea virus. Conditions: for EC50: BVDV NADL in MDBK cells, MOI 0.01, 3 days, reduces viral CPE by 50%, Inactive: <50% of inhibition of CPE at MNCC; for SI (CC50/EC50): in vitro selectivity index, MDBK cells / BVDV NADL. The method, then: (A) Cytotoxicity. […] Mock-treated cells were added as control. […] (B) Antiviral activity.
Madin-Darby bovine kidney cells (MDBK NBL-1; ATCC CCL-22) were grown in Eagle's Minimum Essential Medium (E-MEM), supplemented with 10% biotechnological fetal bovine serum (Internegocios, Argentina) (GM) at 37°C and 5% CO2. The BVDV type 1 NADL strain, cytopathic biotype (BVDV-1, ATCC VR 534), was provided by Dr. Laura Weber (INTA Castelar, Argentina).
Then, serial dilutions of the test compounds in IM were added. […] After incubation for 3 days at 37°C and 5% CO2, the culture medium was removed, cell monolayers were washed twice with PBS, and IM supplemented with MTS/PMS was added to each well. The absorbance of each well was read at 490 nm. The EC50 was defined as the concentration of compound that prevented 50% of the virus-induced CPE and was calculated by interpolation in dose–response curves.

The mark [2] stands for this setting: Bovine viral diarrhea virus isolates and strains, MDBK, 72 h, read-out: EC50.

Where two headings read alike, the source gives them in different places.

24 molecules from paper PMC7793975, “Design and Optimization of Quinazoline Derivatives: New Non-nucleoside Inhibitors of Bovine Viral Diarrhea Virus” (Frontiers in Chemistry, 2020) can be followed below.

Turning to `CN1CCN(c2nc(-c3ccc([N+](=O)[O-])cc3)nc3ccccc23)CC1` [Compound 1.14, 4-(4-Methylpiperazin-1-yl)-2-(4-nitrophenyl)quinazoline], the CC50 at 3 days in series [1] (MDBK cells) is 13 ± 3.4 µM. Besides, the “MNCC (maximum non-cytotoxic concentration)” value in the series on MDBK cells stood at 8.7 ± 1.6 µM. The EC50 result with BVDV type 1 NADL strain was “Inactive”.
Molecule `CN1CCN(c2ncnc3cc(Cl)ccc23)CC1` [Compound 1.24, 7-Chloro-4-(4-Methylpiperazin-1-yl)quinazoline] gave a CC50 at 3 days in series [1] of more than 100 µM. Further, in the series with BVDV type 1 NADL strain (setting [2]), the EC50 amounted to 9.3 ± 2.1 µM. Moreover, the “SI (CC50/EC50)” value in the series on BVDV type 1 NADL strain is given as more than 10.8.
`COc1ccc(Nc2nc(-c3ccccc3)nc3ccccc23)cc1` [Compound 1.3]: the “MNCC (maximum non-cytotoxic concentration)” value with MDBK cells was 6.0 ± 0.2 µM. Further, in the series with BVDV type 1 NADL strain, the EC50 result was “Inactive”.
`c1ccc(CN2CCC(Nc3nc(-c4ccccc4)nc4ccccc34)CC2)cc1` [Compound 1.11, N-(1-Benzylpiperidin-4-yl)-2-phenylquinazolin-4-amine]: in series [1] (MDBK cells), the CC50 at 3 days worked out at 22.2 ± 1.2 µM. Moreover, the “MNCC (maximum non-cytotoxic concentration)” value in the series with MDBK cells worked out at 7.5 ± 0.1 µM. Besides, the EC50 result with BVDV type 1 NADL strain is reported as “Inactive”.
With `CC1(C)CC(Nc2nc(-c3ccccc3)nc3ccccc23)CC(C)(C)N1` [Compound 1.12, 2-Phenyl-N-(2,2,6,6-tetramethylpiperidin-4-yl)quinazolin-4-amine], in series [1] (MDBK cells), the CC50 at 3 days was found to be 7.4 ± 0.03 µM. In the series with MDBK cells, the “MNCC (maximum non-cytotoxic concentration)” value was 3.3 ± 0.7 µM. Moreover, the EC50 in the series with BVDV type 1 NADL strain (setting [2]) came out at 1.4 ± 0.3 µM. The “SI (CC50/EC50)” value in the series with BVDV type 1 NADL strain turned out to be 5.3.
Taken in the same sequence, the figures for `Clc1ccc2c(NCCN3CCOCC3)ncnc2c1` [Compound 1.21, 7-Chloro-N-(2-Morpholinoethyl)quinazolin-4-amine] were 59.3 ± 10.7 µM, 17.3 ± 5.2 µM, 2.3 ± 0.5 µM and 25.8.
`Cc1ccc(CNc2nc(-c3ccccc3)nc3ccccc23)cc1` [Compound 1.2]: the “MNCC (maximum non-cytotoxic concentration)” value in the series with MDBK cells was determined as 6.0 ± 0.2 µM. In the series on BVDV type 1 NADL strain, the EC50 entry was “Inactive”.
Molecule `CN(C)c1ccc(-c2nc(N3CCN(CCO)CC3)c3ccccc3n2)cc1` [Compound 1.18, 2-(4-{2-[4-(N,N-Dimethylamino)phenyl]quinazolin-4-yl}piperazin-1-yl)ethanol] had a CC50 at 3 days in series [1] (MDBK cells) of 61 ± 2.5 µM. Further, the “MNCC (maximum non-cytotoxic concentration)” value in the series with MDBK cells worked out at 26.1 ± 1.2 µM. Moreover, the EC50 in the series on BVDV type 1 NADL strain (setting [2]) turned out to be 3.5 ± 0.6 µM. In the series with BVDV type 1 NADL strain, the “SI (CC50/EC50)” value came to 17.4.
For `CN(C)CCCNc1nc(-c2ccccc2)nc2ccccc12` [Compound 1.7, N^1,N^1-Dimethyl-N^3-(2-phenylquinazolin-4-yl)propane-1,3-diamine] the same measures were 57 ± 0.01 µM, 18.6 ± 2.6 µM, 4.6 ± 1 µM and 12.4.
Taken in the same sequence, the figures for `COc1ccc(-c2nc(N3CCN(C)CC3)c3ccccc3n2)cc1` [Compound 1.19, 2-(4-Methoxyphenyl)-4-(4-Methylpiperazin-1-yl)quinazoline] were 37.1 ± 0.2 µM, 18.3 ± 0.3 µM, 12.8 ± 0.3 µM and 2.9.
For `CN1CCN(c2nc(-c3ccccc3)nc3ccccc23)CC1` [Compound 1.8, 4-(4-Methylpiperazin-1-yl)-2-phenylquinazoline] the same measures were 68 ± 8.4 µM, 19.8 ± 4.0 µM, 1.4 ± 0.1 µM and 48.6.
In the case of `CCCCCCNc1nc(-c2ccccc2)nc2ccccc12` [Compound 1.6, N-Hexyl-2-phenylquinazolin-4-amine], in the series with MDBK cells, the “MNCC (maximum non-cytotoxic concentration)” value was 12.0 ± 0.2 µM. Also, the EC50 result in the series with BVDV type 1 NADL strain is listed as “Inactive”.
Taken in the same sequence, the figures for `c1ccc(CNc2nc(-c3ccccc3)nc3ccccc23)cc1` [Compound 1.4] were 6.0 ± 0.3 µM and “Inactive”.
`[O-][n+]1ccc(CNc2nc(-c3ccccc3)nc3ccccc23)cc1` [Compound 1.13, 4-{[(2-Phenylquinazolin-4-yl)amino]methyl}pyridine 1-oxide] yielded a CC50 at 3 days in series [1] (MDBK cells) of more than 100 µM. In the series on BVDV type 1 NADL strain, the EC50 entry was “Inactive”.
In series [1] (MDBK cells), `OCCN1CCN(c2ncnc3cc(Cl)ccc23)CC1` [Compound 1.22, 2-[4-(7-Chloroquinazolin-4-yl)piperazin-1-yl]ethan-1-ol] showed a CC50 at 3 days of more than 100 µM. Also, in the series on BVDV type 1 NADL strain (setting [2]), the EC50 stood at 25.8 ± 1.2 µM.
In turn, `Cc1ccc(-c2nc(N3CCN(CCO)CC3)c3ccccc3n2)cc1` [Compound 1.20, 2-{4-[2-(p-Tolyl)quinazolin-4-yl]piperazin-1-yl}ethanol] displayed a CC50 at 3 days in series [1] (MDBK cells) of 55.4 ± 4 µM. Also, in the series on MDBK cells, the “MNCC (maximum non-cytotoxic concentration)” value was 30.5 ± 2.1 µM. The EC50 in the series with BVDV type 1 NADL strain (setting [2]) was found to be 8.5 ± 3.4 µM. The “SI (CC50/EC50)” value with BVDV type 1 NADL strain was found to be 6.5.
Take `O=[N+]([O-])c1ccc(-c2nc(N3CCN(CCO)CC3)c3ccccc3n2)cc1` [Compound 1.16, 2-{4-[2-(4-Nitrophenyl)quinazolin-4-yl]piperazin-1-yl}ethanol]: the CC50 at 3 days in series [1] (MDBK cells) was determined as 12 ± 2.1 µM. The “MNCC (maximum non-cytotoxic concentration)” value in the series on MDBK cells came to 5.9 ± 1.4 µM. The EC50 entry in the series on BVDV type 1 NADL strain is listed as “Inactive”.
As for `c1ccc(-c2nc(NCCN3CCOCC3)c3ccccc3n2)cc1` [Compound 1, N-(2-morpholinoethyl)-2-phenylquinazolin-4-amine], the CC50 at 3 days in series [1] (MDBK cells) came out at 55.9 ± 8.2 µM. Moreover, the “MNCC (maximum non-cytotoxic concentration)” value in the series on MDBK cells amounted to 10.9 ± 1.4 µM. Besides, in the series on BVDV type 1 NADL strain (setting [2]), the EC50 came to 9.7 ± 0.5 µM. In addition, the “SI (CC50/EC50)” value in the series on BVDV type 1 NADL strain was found to be 5.8.
For `c1ccc(-c2nc(NCCN3CCCCC3)c3ccccc3n2)cc1` [Compound 1.10, 2-Phenyl-N-[2-(Piperidin-1-yl)ethyl]quinazolin-4-amine] the same measures were 19.6 ± 6.3 µM, 6.4 ± 1.1 µM, 1.4 ± 0.8 µM and 14.0.
As for `FC(F)(F)c1cccc(CNc2nc(-c3ccccc3)nc3ccccc23)c1` [Compound 1.5], the “MNCC (maximum non-cytotoxic concentration)” value with MDBK cells is 6.0 ± 0.1 µM. Besides, the EC50 result in the series on BVDV type 1 NADL strain was “Inactive”.
Consider `Clc1ccc2c(NCCN3CCCCC3)ncnc2c1` [Compound 1.23, 7-Chloro-N-[2-(Piperidin-1-yl)ethyl]quinazolin-4-amine], for which the CC50 at 3 days in series [1] (MDBK cells) was more than 100 µM. Also, the EC50 with BVDV type 1 NADL strain (setting [2]) was found to be 4.1 ± 2.2 µM. Besides, the “SI (CC50/EC50)” value in the series on BVDV type 1 NADL strain is listed as more than 24.4.
On to `OCCN1CCN(c2nc(-c3ccc(Cl)cc3Cl)nc3ccccc23)CC1` [Compound 1.17, 2-{4-[2-(2,4-Dichlorophenyl)quinazolin-4-yl]piperazin-1-yl}ethanol], for which the CC50 at 3 days in series [1] (MDBK cells) was 31.5 ± 5.7 µM. In addition, in the series on MDBK cells, the “MNCC (maximum non-cytotoxic concentration)” value turned out to be 17.4 ± 3.0 µM. Besides, the EC50 result in the series on BVDV type 1 NADL strain was “Inactive”.
With `O=[N+]([O-])c1ccc(-c2nc(NCCN3CCCCC3)c3ccccc3n2)cc1` [Compound 1.15, 2-(4-Nitrophenyl)-N-[2-(piperidin-1-yl)ethyl]quinazolin-4-amine], the CC50 at 3 days in series [1] (MDBK cells) worked out at 30.2 ± 0.5 µM. Also, the “MNCC (maximum non-cytotoxic concentration)” value in the series on MDBK cells came out at 14.6 ± 3.1 µM. Also, the EC50 in the series with BVDV type 1 NADL strain (setting [2]) was 5.8 ± 0.6 µM. Besides, the “SI (CC50/EC50)” value in the series on BVDV type 1 NADL strain came to 5.2.
On to `c1ccc(-c2nc(NCc3cccnc3)c3ccccc3n2)cc1` [Compound 1.1], for which, in the series on MDBK cells, the “MNCC (maximum non-cytotoxic concentration)” value came out at 12.0 ± 0.1 µM. Moreover, the EC50 result in the series on BVDV type 1 NADL strain is “Inactive^f”.
